Source: ChEMBL document CHEMBL4190175 (Medchemcomm, 2016)
Calls of active or inactive are those of the source. The rule behind the calls is not given here.

Tests used:
[1] = Stability in human liver microsomes assessed as metabolic turnover number at 10 uM after 15 mins by LC-MS/UV analysis; format: ADME, microsome; details: read-out: Stability
[2] = biological target: T1, Transient receptor potential cation channel subfamily A member 1 (Homo sapiens, UniProt O75762); assay: Antagonist activity at full length human TRPA1 at holding potential of 15 mV measured after 1 min by PatchXpress electrophysiology assay
T1 sequence (O75762 whole entry): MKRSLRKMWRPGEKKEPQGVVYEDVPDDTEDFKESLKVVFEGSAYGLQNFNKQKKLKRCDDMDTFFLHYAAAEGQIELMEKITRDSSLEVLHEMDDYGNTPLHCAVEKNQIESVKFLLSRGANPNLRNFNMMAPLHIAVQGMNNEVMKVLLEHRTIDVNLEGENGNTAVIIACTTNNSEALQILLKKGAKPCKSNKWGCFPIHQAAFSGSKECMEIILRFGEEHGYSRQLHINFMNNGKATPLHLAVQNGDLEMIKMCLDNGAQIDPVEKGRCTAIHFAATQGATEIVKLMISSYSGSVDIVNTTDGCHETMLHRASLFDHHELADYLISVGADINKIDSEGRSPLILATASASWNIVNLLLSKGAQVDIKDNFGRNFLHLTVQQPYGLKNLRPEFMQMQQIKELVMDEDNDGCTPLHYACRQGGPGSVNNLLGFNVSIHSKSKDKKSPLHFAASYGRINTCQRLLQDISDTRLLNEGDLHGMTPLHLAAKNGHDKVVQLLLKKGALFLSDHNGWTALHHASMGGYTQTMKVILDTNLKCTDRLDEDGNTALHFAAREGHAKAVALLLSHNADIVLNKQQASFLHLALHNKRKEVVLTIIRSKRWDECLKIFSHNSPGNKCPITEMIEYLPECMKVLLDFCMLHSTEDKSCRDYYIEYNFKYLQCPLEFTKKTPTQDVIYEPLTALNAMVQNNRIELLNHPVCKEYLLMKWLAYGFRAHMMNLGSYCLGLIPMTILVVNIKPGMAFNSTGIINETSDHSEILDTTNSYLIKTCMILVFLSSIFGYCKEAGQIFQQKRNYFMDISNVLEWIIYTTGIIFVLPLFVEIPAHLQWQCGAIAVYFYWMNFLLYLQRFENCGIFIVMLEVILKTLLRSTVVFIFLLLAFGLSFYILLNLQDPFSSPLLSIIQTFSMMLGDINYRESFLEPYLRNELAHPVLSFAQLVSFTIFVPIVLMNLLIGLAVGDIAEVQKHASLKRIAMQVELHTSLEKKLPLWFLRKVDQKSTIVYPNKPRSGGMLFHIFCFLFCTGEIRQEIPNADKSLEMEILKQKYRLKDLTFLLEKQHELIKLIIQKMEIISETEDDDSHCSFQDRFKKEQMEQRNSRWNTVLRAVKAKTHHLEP

[3] = biological target: T1, Transient receptor potential cation channel subfamily A member 1; assay: Antagonist activity at full length human TRPA1 expressed in 293-T-REx cells by FLIPR assay
[4] = Ratio of permeability from basolateral to apical side over apical to basolateral side in RRCK cells expressing MDR1; format: ADME, cell-based, Canis lupus familiaris; details: dog, mdckii-le
[5] = Lipophilicity, log D of the compound; format: physicochemical; details: octanol/water
[6] = Passive permeability of the compound in RRCK cells; format: ADME, cell-based, Canis lupus familiaris, MDCKII-LE; details: dog, MDCK; read-out: permeability
[7] = biological target: Transient receptor potential cation channel subfamily A member 1 (Rattus norvegicus, UniProt Q6RI86); assay: Antagonist activity at rat TRPA1 by electrophysiology assay
Transient receptor potential cation channel subfamily A member 1 (Rattus norvegicus, UniProt Q6RI86), sequence (Q6RI86 whole entry): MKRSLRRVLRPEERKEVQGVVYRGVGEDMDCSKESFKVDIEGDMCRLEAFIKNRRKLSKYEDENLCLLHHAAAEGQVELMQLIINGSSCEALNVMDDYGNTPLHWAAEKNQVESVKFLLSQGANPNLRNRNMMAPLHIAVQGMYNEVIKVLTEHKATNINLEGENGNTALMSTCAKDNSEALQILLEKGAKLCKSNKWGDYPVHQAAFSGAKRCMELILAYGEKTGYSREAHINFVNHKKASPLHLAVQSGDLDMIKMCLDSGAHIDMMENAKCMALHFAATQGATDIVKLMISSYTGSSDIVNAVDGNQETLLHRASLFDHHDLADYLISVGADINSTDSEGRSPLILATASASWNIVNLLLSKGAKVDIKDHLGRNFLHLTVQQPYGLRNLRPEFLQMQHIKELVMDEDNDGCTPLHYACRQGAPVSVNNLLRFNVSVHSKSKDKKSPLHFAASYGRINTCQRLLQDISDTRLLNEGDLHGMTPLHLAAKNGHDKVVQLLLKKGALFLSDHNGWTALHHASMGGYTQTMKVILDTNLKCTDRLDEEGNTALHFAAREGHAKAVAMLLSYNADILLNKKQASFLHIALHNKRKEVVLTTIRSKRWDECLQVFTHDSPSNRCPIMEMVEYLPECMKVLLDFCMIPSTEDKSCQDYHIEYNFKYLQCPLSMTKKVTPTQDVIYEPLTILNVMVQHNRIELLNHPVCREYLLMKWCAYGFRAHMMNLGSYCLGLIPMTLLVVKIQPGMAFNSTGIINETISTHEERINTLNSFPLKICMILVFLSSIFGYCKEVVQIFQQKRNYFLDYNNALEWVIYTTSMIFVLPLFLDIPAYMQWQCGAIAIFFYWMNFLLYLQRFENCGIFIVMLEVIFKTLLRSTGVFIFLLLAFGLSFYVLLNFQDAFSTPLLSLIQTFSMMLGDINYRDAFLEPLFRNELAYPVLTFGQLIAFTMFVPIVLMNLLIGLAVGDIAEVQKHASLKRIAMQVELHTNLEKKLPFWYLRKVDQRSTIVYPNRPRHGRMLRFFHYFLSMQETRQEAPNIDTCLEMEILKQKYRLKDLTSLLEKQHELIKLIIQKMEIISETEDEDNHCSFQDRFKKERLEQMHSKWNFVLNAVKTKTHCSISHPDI

[8] = Drug uptake in Sprague-Dawley rat skin epidermal layer at 0.68 mg applied topically measured after 24 hrs; format: ADME, tissue-based, Skin epidermis; details: topical or ocular, read-out: Drug uptake
[9] = Drug uptake in Sprague-Dawley rat skin dermal layer at 0.68 mg applied topically measured after 24 hrs; format: ADME, tissue-based, Dermis; details: topical or ocular, read-out: Drug uptake
Rattus norvegicus [10] = assay: Suppression of cinnamaldehyde-induced flare response in Sprague-Dawley rat skin at 50 to 100 mg/kg administered topically preincubated for 30 to 90 mins measured by recording blood flow for 30 mins by laser Doppler sonography method; format: functional, organism-based
Rattus norvegicus [11] = assay: Suppression of cinnamaldehyde-induced flare response in Sprague-Dawley rat skin at 50 to 100 mg/kg administered topically measured after 30 to 90 mins by recording blood flow for 30 mins by laser Doppler sonography method; format: functional, organism-based

SMILES | microsomal CLint at 10 µM [1] [µL/min/mg] | IC50 [2] [nM] | IC50 [3] [nM] | Papp [6] [×10⁻⁶ cm/s] | also measured
O[C@]12CCCC[C@@H]1CCC[C@H]2Nc1ccc(F)cc1 |  | 10 |  |  | IC50 [7]: 8 nM; concentration at 24 h [8]: 86000 ng/g; concentration at 24 h [9]: 232000 ng/g
CC1(C(=O)NCC(Cc2ccccc2)N2CCC(O)(C(F)(F)F)CC2)CCCCC1 (racemic) | > 320 | 851 |  |  | 
CN1CCC(CC(CNC(=O)C2(c3ccc(Cl)cc3)CCCC2)N2CCC(O)(C(F)(F)F)CC2)CC1 (racemic) | 42 | 26700 |  | 1 | 
CC(C)(C)[C@H]1CC[C@H](C(=O)NCC(Cc2ccccc2)N2CCC(O)(C(F)(F)F)CC2)CC1 (mixture of isomers) | > 320 | 101 |  |  | 
O=C(NCC(Cc1ccc(F)cc1)N1C2CCC1CC(O)(C(F)(F)F)C2)C1(c2ccc(F)cc2)CCCC1 (racemic) | > 320 | 825 |  |  | 
O=C(NCC(Cc1ccc(F)cc1)N1CC2CCC1C2)C1(c2ccc(F)cc2)CC1 (racemic) | > 320 |  | > 10000 |  | 
CN(CC(Cc1ccccc1)N1CCC(O)(C(F)(F)F)CC1)C(=O)C1(c2ccc(Cl)cc2)CCCC1 (racemic) | > 320 | > 1000 |  |  | 
O=C1CCC2(CCN(C(CNC(=O)C3(c4ccc(F)cc4)CC3)Cc3ccc(F)cc3)CC2)N1 (racemic) | 168 |  | > 10000 |  | 
O=C(NCC(Cc1ccc(F)cc1)N1CCC2(C1)CC2(F)F)C1(c2ccc(F)cc2)CCCC1 (racemic) | > 320 |  | > 10000 | 0.3 | 
CC(C)C(CNC(=O)C1(c2ccc(Cl)cc2)CCCC1)N1CCC(O)(C(F)(F)F)CC1 (racemic) | > 320 | > 1000 |  | < 1 | 
O=C(NCC(CC1CCOCC1)N1CCC(O)(C(F)(F)F)CC1)C1(c2ccc(Cl)cc2)CCCC1 (racemic) | > 320 | 1900 |  | 3 | 
O=C(NCC(Cc1ccc(F)cc1)N1CCC(O)C1)C1(c2ccc(F)cc2)CCCC1 (racemic) | 170 |  | > 10000 |  | 
O=C(NCC(Cc1ccccc1)N1CCC(C(F)(F)F)CC1)C1(c2ccc(F)cc2)CCCC1 (racemic) | 238 | 673 |  | 6 | 
O=C(NCC(Cc1ccc(F)cc1)N1CCC2(CC1)COC2)C1(c2ccc(F)cc2)CCCC1 (racemic) | > 320 |  | > 10000 |  | 
O=C(NCC(Cc1ccccc1)N1CCN(c2ccccn2)CC1)C1(c2ccc(Cl)cc2)CCCC1 (racemic) | 312 | > 1000 |  | < 1 | 
O=C(NCC(Cc1ccccc1)N1CCC(O)(C(F)(F)F)C1)C1(c2ccc(F)cc2)CCC1 (racemic) |  | 309 |  |  | 
CN1CCN(C(CNC(=O)C2(c3ccc(Cl)cc3)CCCC2)Cc2ccccc2)CC1 (racemic) | > 320 | > 3000 |  | 3 | 
O=C(NCC(c1ccccc1)N1CCC(O)(C(F)(F)F)CC1)C1(c2ccc(Cl)cc2)CC1 (racemic) | > 320 | > 3000 |  | 4 | 
O=C(NCC(Cc1ccc(F)cc1)N1CCC(C(F)(F)F)C1)C1(c2ccc(F)cc2)CCCC1 (racemic) |  | 1450 |  |  | 

Further lines, with some results ahead:

microsomal CLint at 10 µM [1] [µL/min/mg] | IC50 [2] [nM] | IC50 [3] [nM] | Papp [6] [×10⁻⁶ cm/s] | SMILES | also measured
> 320 | 474 |  |  | O=C(NC[C@H](Cc1ccccc1)N1CCC(O)(C(F)(F)F)CC1)C1(c2ccc(Cl)cc2)CC1 | 
 |  | 71 |  | CCCC(C)(C)C(=O)NC[C@@H](Cc1ccccc1)N1CCC(O)(C(F)(F)F)CC1 | 
> 320 | 53 |  |  | O=C(NC[C@@H](Cc1ccccc1)N1CCC(O)(C(F)(F)F)CC1)C1(c2ccc(Cl)cc2)CC1 | 
> 320 | 1900 |  | 1 | O=C(NC[C@H](Cc1ccccc1)N1CCC(O)(C(F)(F)F)CC1)C1(c2ccc(Cl)cc2)CCCC1 | Ratio [4]: 1; logD [5]: 4.7
 |  | 1700 |  | CCCC(C)(C)C(=O)NC[C@H](Cc1ccccc1)N1CCC(O)(C(F)(F)F)CC1 | 
> 320 | 17 | 374 | 1 | O=C(NCC(Cc1ccccc1)N1CCC(O)(C(F)(F)F)CC1)C1(c2ccc(Cl)cc2)CCCC1 (racemic) | Activity (Rattus norvegicus [10]): Active; Activity (Rattus norvegicus [11]): Active
> 320 | 73 |  | 2 | O=C(NCC(Cc1ccccc1)N1CCC(O)(C(F)(F)F)CC1)C1(c2ccc(Cl)cc2)CC1 (racemic) | 
146 |  | > 10000 |  | Cc1nc(C(=O)NCC(Cc2ccccc2)N2CCC(O)(C(F)(F)F)CC2)c(C(F)(F)F)o1 (racemic) | 
285 | 83 |  | 8 | O=C(NCC(Cc1ccccc1)N1CCC(O)(C(F)(F)F)CC1)c1cc(C(F)(F)F)ccn1 (racemic) | 
> 320 | 159 |  |  | CC(C)c1csc(C(=O)NCC(Cc2ccccc2)N2CCC(O)(C(F)(F)F)CC2)n1 (racemic) | 
284 | 91 |  | 31 | CC(C)(C(=O)NCC(Cc1ccccc1)N1CCC(O)(C(F)(F)F)CC1)C(F)(F)F (racemic) | 
> 320 |  | > 10000 |  | CC(C)(C)c1ccc(CC(=O)NCC(Cc2ccccc2)N2CCC(O)(C(F)(F)F)CC2)cc1 (racemic) | 
149 | 1000 |  |  | O=C(NCC(Cc1ccccc1)N1CCC(O)(C(F)(F)F)CC1)C1(C(F)(F)F)CC1 (racemic) | 
